Target: T1, mAChR M1 (UniProt P08482)
T1 sequence (P08482 1-460): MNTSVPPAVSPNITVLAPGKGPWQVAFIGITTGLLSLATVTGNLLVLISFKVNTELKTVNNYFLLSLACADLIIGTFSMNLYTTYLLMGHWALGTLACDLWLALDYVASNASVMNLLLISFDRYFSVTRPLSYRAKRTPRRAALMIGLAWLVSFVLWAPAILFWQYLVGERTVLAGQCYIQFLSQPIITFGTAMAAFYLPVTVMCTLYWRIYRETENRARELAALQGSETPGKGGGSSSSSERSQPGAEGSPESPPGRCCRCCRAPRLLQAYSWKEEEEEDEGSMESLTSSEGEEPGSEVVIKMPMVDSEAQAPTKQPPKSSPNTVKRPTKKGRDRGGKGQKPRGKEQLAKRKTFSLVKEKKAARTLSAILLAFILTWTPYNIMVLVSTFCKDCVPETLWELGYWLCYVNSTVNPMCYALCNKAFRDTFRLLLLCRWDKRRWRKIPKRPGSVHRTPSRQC
Experiment: mAChR M1 cell-based functional assay (calcium mobilization, Fluo-4, FDSS)
Conditions: positive allosteric modulation of EC20 acetylcholine response, CHO-K1 cells expressing mAChR M1; read-out: Potency (EC50)
Method: Chinese hamster ovary (CHO-K1) cells stably expressing rat (r)M1 were purchased from the American Type Culture Collection and cultured according to their indicated protocol. […] To make stable rM2, hM2, rM3, hM4, and rM4 cell lines for use in calcium mobilization assays, these cells also were stably transfected with a chimeric G-protein (Gqi5) (provided by B. R. Conklin, University of California, San Francisco) using Lipofectamine 2000. rM1, hM1, rM3, hM3, rM5, and hM5 cells were grown in Ham's F-12 medium containing 10% heat-inactivated fetal bovine serum (FBS), 20 mM HEPES, and 50 μg/mL G418 sulfate. rM2-Gqi5, hM2-Gqi5, and hM4-Gqi5 cells were grown in the same medium also containing 500 μg/mL Hygromycin B. Stable rM4-Gqi5 cells were grown in DMEM containing 10% heat-inactivated FBS, 20 mM HEPES, 400 μg/mL G418 sulfate, and 500 μg/mL Hygromycin B.
For high throughput measurement of agonist-evoked increases in intracellular calcium, CHO-K1 cells stably expressing muscarinic receptors were plated in growth medium lacking G418 and hygromycin at 15,000 cells/20 μL/well in Greiner 384-well black-walled, tissue culture (TC)-treated, clear-bottom plates (VWR). Cells were incubated overnight at 37° C. and 5% CO2. […] Compound master plates were formatted in an 11 point CRC format (1:3 dilutions) in 100% DMSO with a starting concentration of 10 mM using the BRAVO liquid handler (Agilent). Test compound CRCs were then transferred to daughter plates (240 nL) using the Echo acoustic plate reformatter (Labcyte, Sunnyvale, Calif.) and then diluted into assay buffer (40 μL) to a 2× stock using a Thermo Fisher Combi (Thermo Fisher Scientific, Waltham, Mass.).
Calcium flux was measured using the Functional Drug Screening System (FDSS) 6000 (Hamamatsu Corporation, Tokyo, Japan) as an increase in the fluorescent static ratio. Compounds were applied to cells (20 μL, 2×) using the automated system of the FDSS 6000 at 4 s into the 300 s protocol and the data were collected at 1 Hz. […] Agonist activity was analyzed as a concentration-dependent increase in calcium mobilization upon compound addition. Positive allosteric modulator activity was analyzed as a concentration-dependent increase in the EC20 acetylcholine response. Antagonist activity was analyzed as a concentration-dependent decrease in the EC80 acetylcholine response. Concentration-response curves were generated using a four-parameter logistical equation in XLfit curve fitting software (IDBS, Bridgewater, N.J.) for Excel (Microsoft, Redmond, Wash.) or Prism (GraphPad Software, Inc., San Diego, Calif.).
The calcium mobilization assay was also used to determine “efficacy”. In the context of the assays carried out for the data in Table I, “efficacy” (% ACh at 30 μM) is defined as the maximal response in the calcium flux as determined by the sigmoidal curve fit of the concentration response curve, or in the absence of an acceptable curve fit, the response recorded at 30 μM test compound, stated as a percentage of the response elicited by a concentration of Ach that induces approximately 80% of a maximal (i.e. saturating) ACh response.

Cc1cc(NC(=O)CS(=O)(=O)c2cn(Cc3ccc(F)cc3F)c3ccccc23)no1 [compound 49, 2-{1-[(2,4-difluorophenyl)methyl]-1H-indole-3-sulfonyl}-N-(5-methyl-1,2-oxazol-3-yl)acetamide]
EC50: > 10 µM

Cc1cc(NC(=O)CS(=O)(=O)c2cn(Cc3ccc4c(c3)OCO4)c3ccccc23)no1 [compound 50, 2-[1-(2H-1,3-benzodioxol-5-ylmethyl)-1H-indole-3-sulfonyl]-N-(5-methyl-1,2-oxazol-3-yl)acetamide]
EC50: > 10 µM

Cc1cc(NC(=O)CSc2cn(Cc3cccc(Br)c3)c3ccccc23)no1 [compound 51, 2-({1-[(3-bromphenyl)methyl]-1H-indol-3-yl}sulfanyl)-N-(5-methyl-1,2-oxazol-3-yl)acetamide]
EC50: > 10 µM

Cc1cc(NC(=O)CS(=O)(=O)c2cn(Cc3ccc(F)c(Cl)c3)c3ccccc23)no1 [compound 52, 2-{1-[(3-chloro-4-fluorophenyl)methyl]-1H-indole-3-sulfonyl}-N-(5-methyl-1,2-oxazol-3-yl)acetamide]
EC50: > 10 µM

Cc1cc(NC(=O)CS(=O)(=O)c2cn(Cc3ccc(C(F)(F)F)cc3)c3ccccc23)no1 [compound 53, N-(5-methyl-1,2-oxazol-3-yl)-2-(1-{[4-(trifluoromethyl)phenyl]methyl}-1H-indole-3-sulfonyl)acetamide]
EC50: > 10 µM

Cc1cc(NC(=O)CS(=O)(=O)c2cn(Cc3cccc(C(F)(F)F)c3)c3ccccc23)no1 [compound 54, N-(5-methyl-1,2-oxazol-3-yl)-2-(1-{[3-(trifluoromethyl)phenyl]methyl}-1H-indole-3-sulfonyl)acetamide]
EC50: > 10 µM

Cc1cc(NC(=O)CS(=O)(=O)c2cn(Cc3ccc(Cl)c(Cl)c3)c3ccccc23)no1 [compound 55, 2-{1-[(3,4-dichlorophenyl)methyl]-1H-indole-3-sulfonyl}-N-(5-methyl-1,2-oxazol-3-yl)acetamide]
EC50: > 10 µM

Cc1cc(NC(=O)CS(=O)(=O)c2cn(Cc3cccc(-c4ccccc4)c3)c3ccccc23)no1 [compound 56, N-(5-methyl-1,2-oxazol-3-yl)-2-{1-[(3-phenylphenyl)methyl]-1H-indole-3-sulfonyl}acetamide]
EC50: > 10 µM

Cc1cc(NC(=O)CS(=O)(=O)c2cn(Cc3ccc(OC(F)(F)F)cc3)c3ccccc23)no1 [compound 57, N-(5-methyl-1,2-oxazol-3-yl)-2-(1-{[4-(trifluoromethoxy)phenyl]methyl}-1H-indole-3-sulfonyl)acetamide]
EC50: > 10 µM

Cc1cc(NC(=O)CS(=O)(=O)c2cn(Cc3ccc(F)c(-c4cc[nH]n4)c3)c3ccccc23)no1 [compound 58, 2-(1-{[4-fluoro-3-(1H-pyrazol-3-yl)phenyl]methyl}-1H-indole-3-sulfonyl)-N-(5-methyl-1,2-oxazol-3-yl)acetamide]
EC50: > 10 µM

O=C(CS(=O)(=O)c1cn(Cc2cc(Br)ccc2F)c2ccccc12)Nc1ccccc1 [compound 59, 2-{1-[(5-bromo-2-fluorophenyl)methyl]-1H-indole-3-sulfonyl}-N-phenylacetamide]
EC50: > 10 µM

Cc1cc(NC(=O)CS(=O)(=O)c2cn(Cc3ccc(Br)cc3F)c3ccccc23)no1 [compound 60, 2-{1-[(4-bromo-2-fluorophenyl)methyl]-1H-indole-3-sulfonyl}-N-(5-methyl-1,2-oxazol-3-yl)acetamide]
EC50: > 10 µM

Cc1cc(NC(=O)CS(=O)(=O)c2cn(Cc3ccc(F)c(Br)c3)c3ccccc23)no1 [compound 61, 2-{1-[(3-bromo-4-fluorophenyl)methyl]-1H-indole-3-sulfonyl}-N-(5-methyl-1,2-oxazol-3-yl)acetamide]
EC50: > 10 µM

Cc1cc(NC(=O)CS(=O)(=O)c2cn(Cc3cccc(Br)c3F)c3ccccc23)no1 [compound 62, 2-{1-[(3-bromo-2-fluorophenyl)methyl]-1H-indole-3-sulfonyl}-N-(5-methyl-1,2-oxazol-3-yl)acetamide]
EC50: > 10 µM

Cc1cc(NC(=O)C(C)S(=O)(=O)c2cn(Cc3cc(Br)ccc3F)c3ccccc23)no1 (stereo not shown) [compound 63, 2-{1-[(5-bromo-2-fluorophenyl)methyl]-1H-indole-3-sulfonyl}-N-(5-methyl-1,2-oxazol-3-yl)propanamide]
EC50: > 10 µM

Cc1cc(NC(=O)CS(=O)(=O)c2cn(Cc3cccc(-c4ccc(Cl)nc4)c3)c3ccccc23)no1 [compound 64, 2-(1-{[3-(6-chloropyridin-3-yl)phenyl]methyl}-1H-indole-3-sulfonyl)-N-(5-methyl-1,2-oxazol-3-yl)acetamide]
EC50: > 10 µM

Cc1cc(NC(=O)CS(=O)(=O)c2cn(Cc3cccc(-c4cnn(CC(C)C)c4)c3)c3ccccc23)no1 [compound 65, N-(5-methyl-1,2-oxazol-3-yl)-2-[1-({3-[1-(2-methylpropyl)-1H-pyrazol-4-yl]phenyl}methyl)-1H-indole-3-sulfonyl]acetamide]
EC50: > 10 µM

Cc1cc(NC(=O)C(Cc2ccccc2F)S(=O)(=O)c2cn(Cc3ccccc3F)c3ccccc23)no1 (stereo not shown) [compound 66, 3-(2-fluorophenyl)-2-{1-[(2-fluorophenyl)methyl]-1H-indole-3-sulfonyl}-N-(5-methyl-1,2-oxazol-3-yl)propanamide]
EC50: > 10 µM

Cc1cc(NC(=O)CS(=O)(=O)c2cn(Cc3cccc(-c4ccc(N5CCCC5)nc4)c3)c3ccccc23)no1 [compound 67, N-(5-methyl-1,2-oxazol-3-yl)-2-[1-({3-[6-(pyrrolidin-1-yl)pyridin-3-yl]phenyl}methyl)-1H-indole-3-sulfonyl]acetamide]
EC50: > 10 µM

Cc1cc(NC(=O)CS(=O)(=O)c2cn(Cc3cc(Br)cc(Br)c3)c3ccccc23)no1 [compound 68, 2-{1-[(3,5-dibromophenyl)methyl]-1H-indole-3-sulfonyl}-N-(5-methyl-1,2-oxazol-3-yl)acetamide]
EC50: > 10 µM

Cc1cc(NC(=O)C(Cc2cccc(Cl)c2)S(=O)(=O)c2cn(Cc3cccc(Cl)c3)c3ccccc23)no1 (stereo not shown) [compound 69, 3-(3-chlorophenyl)-2-{1-[(3-chlorophenyl)methyl]-1H-indole-3-sulfonyl}-N-(5-methyl-1,2-oxazol-3-yl)propanamide]
EC50: > 10 µM

Cc1cc(NC(=O)CS(=O)(=O)c2cn(Cc3cccc(-c4ccc(N5CCNCC5)nc4)c3)c3ccccc23)no1 [compound 70, N-(5-methyl-1,2-oxazol-3-yl)-2-[1-({3-[6-(piperazin-1-yl)pyridin-3-yl]phenyl}methyl)-1H-indole-3-sulfonyl]acetamide]
EC50: > 10 µM

Cc1cc(NC(=O)C(Cc2ccc(F)cc2F)S(=O)(=O)c2cn(Cc3ccc(F)cc3F)c3ccccc23)no1 (stereo not shown) [compound 71, 3-(2,4-difluorophenyl)-2-{1-[(2,4-difluorophenyl)methyl]-1H-indole-3-sulfonyl}-N-(5-methyl-1,2-oxazol-3-yl)propanamide]
EC50: > 10 µM

Cc1cc(NC(=O)CS(=O)(=O)c2cn(Cc3cccc(-c4ccc(N5CCOCC5)nc4)c3)c3ccccc23)no1 [compound 72, N-(5-methyl-1,2-oxazol-3-yl)-2-[1-({3-[6-(morpholin-4-yl)pyridin-3-yl]phenyl}methyl)-1H-indole-3-sulfonyl]acetamide]
EC50: > 10 µM

Cc1cc(NC(=O)C(C)S(=O)(=O)c2cn(Cc3cc(Br)cc(Br)c3)c3ccccc23)no1 (stereo not shown) [compound 73, 2-{1-[(3,5-dibromophenyl)methyl]-1H-indole-3-sulfonyl}-N-(5-methyl-1,2-oxazol-3-yl)propanamide]
EC50: > 10 µM
